Measured values published in US10907219B2, “Compositions and methods for controlling cellular function” (STC.UNM, priority 2014, dated 2021).

Legend:
[1] = system: HEK 293T inducible EGFP reporter cell line (VP-PYL and GAL4DBD-ABI); test: Light-induced EGFP expression; assay type: cell-based
Excerpt: To confirm that the photo-regenerated ABA is biologically functional, we determined whether it can be employed to induce PYL-ABI dimerization in an ABA-inducible transcriptional activation system using an established HEK 293T inducible EGFP reporter cell line. The cell line was created with both the ABA-responsive split transcriptional activator DNA fragment (VP-PYL and GAL4DBD-ABI linked by IRES; Liang et al., 2011, Sci. Signal. 4, rs2) and an inducible EGFP DNA fragment (with 5×UAS and the IL-2 minimal promoter) inserted into the genome (FIG. 21A). EGFP expression was activated through the recruitment of VP16AD to the EGFP gene in the presence of ABA. 24 hours after plating the cells, 10 μM of ABA, pre-irradiated ABA-DMNB products, or non-irradiated ABA-DMNB were separately added to the cells and incubated for an additional eight hours. EGFP expression was then determined using a fluorescence microscopy.
Cell culture and transfection: CHO cells and HEK 293T EGFP reporter cells (provided by Dr. Gerald R. Crabtree) were cultured in Dulbecco's modified Eagle's medium (DMEM; GIBCO, Life Technologies, Carlsbad, Calif.) with 10% FBS (Atlanta Biologicals, Inc., Norcross, Ga.), 1×GlutaMAX (GIBCO, Life Technologies, Carlsbad, Calif.), and 1× penicillin/streptomycin (Pen/Strep; GIBCO, Life Technologies, Carlsbad, Calif.). 15,000-50,000 ells were plated in a 24-well or 8-well plate for 24 hours before transfection. DNA constructs (0.1 μg-0.5 μg) were added to 50× (v/w) Opti-MEM (GIBCO, Life Technologies, Carlsbad, Calif.), and then 3× (v/w) PEI (Polysciences, Inc., Warrington, Pa.) was mixed with the DNA. The mixture was incubated for 20 minutes at room temperature before adding it to cell cultures. The cells were grown for one day after transfection before experiments were performed.
Photo-irradiation: Irradiation at 365 nm was performed with an Axio Observer (Carl Zeiss AG, Oberkochen, Germany) microscope with an HBO103 W/2 mercury arc lamp (Carl Zeiss AG, Oberkochen, Germany). Irradiation was performed by using a DAPI filter (Carl Zeiss AG, Oberkochen, Germany), set with peak excitation at 365 nm (power density: 23 mW cm^2) and a spectral width of 50 nm. No objective lens was used for whole-well irradiation, which created an area of illumination that nearly completely covered one well of a 24-well plate. Light was transmitted through the bottom of the well of polystyrene plate. Irradiation at 405 nm was performed by using an adjustable focus violet purple laser pointer (LazerPoint SKU 0733579), with an excitation wavelength of 405 nm and 1000 mW intensity positioned 8 cm above the bottom of either a 96-well or 24-well plate and irradiated through the polystyrene lid. […]

[2] = system: HEK 293T eGFP reporter cells (VP-PYL and GAL4DBD-ABI); test: H2O2-induced eGFP expression (transcriptional activation); assay type: cell-based
Excerpt: To determine if the ABA generated from the H2O2-induced cleavage of ABA-HP is biologically active, we tested whether it could induce downstream biological processes. We first investigated H2O2-induced transcriptional activation using an HEK 293T stable cell line, in which enhanced GFP (eGFP) expression occurs only in the presence of functional ABA. The cell line was created with both the ABA-responsive split transcriptional activator DNA fragment (VP-PYL and GAL4DBD-ABI linked by IRES; Liang et al., 2011, Sci. Signal. 4, rs2) and an inducible eGFP DNA fragment (with 5×UAS) inserted into the genome (FIG. 2a).
We tested the response of our system to H2O2 at physiologically relevant concentrations under cell culture conditions. The eGFP reporter cells were treated with no drug, or 10 μM of ABA, ABA-HP, or ABA-HP exposed to H2O2 (1, 5 or 10 eq) for five to 24 hours. The expression of eGFP was monitored at specific time points using a fluorescence microscope. […] Alternatively, for cellular experiments, cell culture media can be exchanged regularly with media containing fresh ABA-HP and thus restrict the build-up of esterase-cleaved ABA.
EGFP expression experiments: HEK 293T (GFP) cells were seeded 24 hours prior to treatment in 24-well plates at 100 K/well. 10 μM ABA-HP was added to the cells 10 minutes prior to the addition of 10 μM ABA and 10, 50, or 100 μM of H2O2. Images were taken for living cells at 5 hours, 7 hours, 10 hours and 24 hours.
An Axio Observer D1 fluorescent microscope (Carl Zeiss AG, Oberkochen, Germany) outfitted with HBO 100 microscopy illumination system (Carl Zeiss AG, Oberkochen, Germany; GFP: excitation 470/40 and emission 525/50) was used to analyze GFP expression and NES localization. A 20× objective was used to analyze GFP expression. A 63× objective was used for NES localization.

[3] = 10 μM, not irradiated, eight hours

Compound	eGFP expression [1, 3]	eGFP expression ([2]; 10 μM, compound alone, after five hours)	eGFP expression ([1]; 10 μM, pre-irradiated (pre-photocleaved) products, eight hours)	eGFP expression ([1]; irradiated in cell culture, 365 nm)	eGFP expression ([2]; 10 μM plus H2O2 (1, 5 or 10 eq), after five hours)	dependence of eGFP expression on H2O2 level ([2]; 10 μM plus different amounts of H2O2)	eGFP expression ([2]; 10 μM, compound alone, extended incubation 24 hours)	eGFP expression ([2]; 10 μM, compound alone, no H2O2, within 10 hours)	stability within cells ([2]; 10 μM, no H2O2, inferred from absent eGFP expression)
CC1=CC(=O)CC(C)(C)C1(O)/C=C/C(C)=C\C(=O)O (stereo not shown) [ABA, abscisic acid, reference compound]	induced EGFP production	eGFP expression could be observed after five hours	–	–	–	–	–	–	–
COc1cc(COC(=O)/C=C(C)\C=C\[C@@]2(O)C(C)=CC(=O)CC2(C)C)c([N+](=O)[O-])cc1OC [ABA-DMNB]	did not induce EGFP expression	–	induced EGFP production	showed EGFP expression	–	–	–	–	–
CC1=CC(=O)CC(C)(C)[C@@]1(O)/C=C/C(C)=C\C(=O)OCc1ccc(B2OC(C)(C)C(C)(C)O2)cc1 [ABA-HP]	–	–	–	–	eGFP expression could be observed after five hours	dose-dependent eGFP expression	eGFP expression was indeed observed	not observed within a 10-hour period	at least 10 hours
